We go through seven compounds from PubChem BioAssay AID330 (DTP/NCI, 2004).

Molecules are shown by their SMILES. Several values for one entry are separate records, joined by “and”; a condition that tells them apart may be missing. Equal values may be shown once. Toxic doses and inconclusive results are not listed. Numbered stars: 1 amine (or outer) side, 2 acyl side, 3 side chain; on linkers, the order of the positions; unused ones are H or OH. Bridge positions count the residues as written; N and C are the ends. Square brackets hold non-standard residues; d marks the D form. Peptide text beside a SMILES is read from it. I, II: the chains in the order shown. Actinocin(9to1) = Cc1c2oc3c(C)ccc(C(=O)[*:1])c3nc-2c(C(=O)[*:2])c(N)c1=O; aThr = C[C@H](O)[C@H](N)C(=O)O; NMeV = CN[C@H](C(=O)O)C(C)C; Sar = CNCC(=O)O

The subject of the assay is P388 leukemia ip, CD2F1 mice, survival T/C. The assay can be described thus: NCI In Vivo Anticancer Drug Screen. Data for tumor model P388 Leukemia (intraperitoneal) in CD2F1 (CDF1) mice. Particulars: endpoint: median survival time, higher = longer survival. The gist of the method: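 Mice carrying the transplanted tumor received test compound or vehicle. Survival was recorded in each group, and the value is the treated-group measurement divided by that of the vehicle-treated control group.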

Setting [1] is: dose: 50.0 mg/kg/injection, schedule: Q01DX009 (ip), vehicle: saline with Tween-80.
The mark [2] stands for this setting: dose: 100.0 mg/kg/injection, schedule: Q01DX009 (ip), vehicle: saline with Tween-80.

Consider `Cc1c2oc3c(C)ccc(C(=O)N[C@@H]4C(=O)N[C@H](C(C)C)C(=O)N5CCC[C@H]5C(=O)N(C)CC(=O)N(C)[C@@H](C(C)C)C(=O)O[C@H]4C)c3nc-2c(C(=O)N[C@@H]2C(=O)N[C@H](C(C)C)C(=O)N3CCC[C@H]3C(=O)N(C)CC(=O)N(C)[C@@H](C(C)C)C(=O)O[C@H]2C)c(N)c1=O` (I: [aThr][dV]P[Sar][NMeV] / II: [aThr][dV]P[Sar][NMeV]; ester I:1-I:C, II:1-II:C; linker I:N-II:N via Actinocin(9to1)), for which the T/C is 236 % of control (dose: 0.05 mg/kg/injection, schedule: Q01DX005 (ip), vehicle: saline + alcohol); 165 % of control (dose: 0.08 mg/kg/injection, schedule: Q04DX003 (ip), vehicle: saline + alcohol); 79 % of control (dose: 0.09 mg/kg/injection, schedule: Q01DX009 (ip), vehicle: water); 181 % of control (dose: 0.1 mg/kg/injection, schedule: Q01DX001 (ip), vehicle: water); 151 % of control (dose: 0.11 mg/kg/injection, schedule: Q04DX003 (ip), vehicle: saline + alcohol); 156 % of control and 180 % of control and 198 % of control (dose: 0.13 mg/kg/injection, schedule: Q04DX002 (ip), vehicle: saline + alcohol). For the same compound, the T/C by setting is: (dose: 0.13 mg/kg/injection, schedule: Q04DX003 (ip), vehicle: saline + alcohol) 223 % of control; (dose: 0.15 mg/kg/injection, schedule: Q04DX003 (ip), vehicle: saline) 169 % of control; (dose: 0.16 mg/kg/injection, schedule: Q01DX009 (ip), vehicle: water) 65 % of control; (dose: 0.18 mg/kg/injection, schedule: Q04DX003 (ip), vehicle: saline + alcohol) 163 % of control; (dose: 0.21 mg/kg/injection, schedule: Q04DX002 (ip), vehicle: saline + alcohol) 186 % of control; (dose: 0.22 mg/kg/injection, schedule: Q04DX002 (ip), vehicle: saline + alcohol) 162 % of control and 215 % of control. Moreover, the T/C was 247 % of control (dose: 0.22 mg/kg/injection, schedule: Q04DX003 (ip), vehicle: saline + alcohol); 153 % of control (dose: 0.3 mg/kg/injection, schedule: Q01DX001 (ip), vehicle: saline); 182 % of control (dose: 0.3 mg/kg/injection, schedule: Q04DX003 (ip), vehicle: saline + alcohol); 175 % of control (dose: 0.3 mg/kg/injection, schedule: Q04DX003 (ip), vehicle: saline); 118 % of control and 176 % of control and 212 % of control (dose: 0.36 mg/kg/injection, schedule: Q04DX002 (ip), vehicle: saline + alcohol); 99 % of control (dose: 0.36 mg/kg/injection, schedule: Q04DX003 (ip), vehicle: saline + alcohol). Further, the T/C is, setting by setting: (dose: 0.45 mg/kg/injection, schedule: Q01DX001 (ip), vehicle: saline) 164 % of control; (dose: 0.5 mg/kg/injection, schedule: Q04DX003 (ip), vehicle: saline + alcohol) 220 % of control; (dose: 0.6 mg/kg/injection, schedule: Q01DX001 (ip), vehicle: saline) 169 % of control; (dose: 0.6 mg/kg/injection, schedule: Q04DX002 (ip), vehicle: saline + alcohol) 101 % of control and 207 % of control and 254 % of control; (dose: 0.6 mg/kg/injection, schedule: Q04DX003 (ip), vehicle: saline) 86 % of control; (dose: 0.8 mg/kg/injection, schedule: Q01DX001 (ip), vehicle: water) 183 % of control. Also, the T/C reads like this: (dose: 1.0 mg/kg/injection, schedule: Q04DX002 (ip), vehicle: saline + alcohol) 260 % of control and 274 % of control; (dose: 1.2 mg/kg/injection, schedule: Q01DX001 (ip), vehicle: water) 55 % of control; (dose: 3.0 micrograms/kg/injection, schedule: Q01DX009 (ip), vehicle: water) 150 % of control and 160 % of control and 175 % of control; (dose: 6.0 micrograms/kg/injection, schedule: Q01DX009 (ip), vehicle: water) 164 % of control and 170 % of control and 188 % of control; (dose: 6.25 micrograms/kg/injection, schedule: Q01DX005 (ip), vehicle: saline + alcohol) 207 % of control; (dose: 6.25 micrograms/kg/injection, schedule: Q01DX009 (ip), vehicle: saline) 150 % of control. Further, the T/C was 155 % of control (dose: 6.5 micrograms/kg/injection, schedule: Q01DX009 (ip), vehicle: saline + alcohol); 160 % of control (dose: 10.8 micrograms/kg/injection, schedule: Q01DX009 (ip), vehicle: saline + alcohol); 207 % of control (dose: 12.5 micrograms/kg/injection, schedule: Q01DX005 (ip), vehicle: saline + alcohol); 163 % of control (dose: 18.0 micrograms/kg/injection, schedule: Q01DX009 (ip), vehicle: saline + alcohol); 245 % of control (dose: 25.0 micrograms/kg/injection, schedule: Q01DX005 (ip), vehicle: saline + alcohol); 184 % of control (dose: 30.0 micrograms/kg/injection, schedule: Q01DX009 (ip), vehicle: saline + alcohol). Besides, the T/C was 176 % of control and 267 % of control (dose: 50.0 micrograms/kg/injection, schedule: Q01DX005 (ip), vehicle: saline + alcohol); 156 % of control (dose: 64.8 micrograms/kg/injection, schedule: Q04DX003 (ip), vehicle: saline + alcohol); 174 % of control (dose: 77.8 micrograms/kg/injection, schedule: Q04DX003 (ip), vehicle: saline + alcohol); 98 % of control (dose: 83.3 micrograms/kg/injection, schedule: Q01DX009 (ip), vehicle: saline + alcohol); 178 % of control (dose: 100.0 micrograms/kg/injection, schedule: Q01DX005 (ip), vehicle: saline + alcohol); 175 % of control (dose: 130.0 micrograms/kg/injection, schedule: Q04DX003 (ip), vehicle: saline + alcohol). The T/C (dose: 139.0 micrograms/kg/injection, schedule: Q01DX009 (ip), vehicle: saline + alcohol) was 96 % of control; the T/C (dose: 180.0 micrograms/kg/injection, schedule: Q04DX003 (ip), vehicle: saline + alcohol) is 190 % of control; the T/C (dose: 216.0 micrograms/kg/injection, schedule: Q04DX003 (ip), vehicle: saline + alcohol) was 192 % of control; the T/C (dose: 300.0 micrograms/kg/injection, schedule: Q04DX003 (ip), vehicle: saline + alcohol) is 162 % of control and 175 % of control; the T/C (dose: 360.0 micrograms/kg/injection, schedule: Q04DX003 (ip), vehicle: saline + alcohol) was 197 % of control; the T/C (dose: 500.0 micrograms/kg/injection, schedule: Q04DX003 (ip), vehicle: saline + alcohol) is 113 % of control and 219 % of control. Moreover, the T/C (dose: 600.0 micrograms/kg/injection, schedule: Q04DX003 (ip), vehicle: saline + alcohol) is 101 % of control.

Take `C(=Nc1ccc2ccc3cccc4ccc1c2c34)c1ccncc1`: the T/C is 102 % of control (dose: 25.0 mg/kg/injection, schedule: Q01DX005 (ip), vehicle: Klucel (hydroxypropylcellulose) (HPC)); 100 % of control (dose: 50.0 mg/kg/injection, schedule: Q01DX005 (ip), vehicle: Klucel (hydroxypropylcellulose) (HPC)); 100 % of control (dose: 100.0 mg/kg/injection, schedule: Q01DX005 (ip), vehicle: Klucel (hydroxypropylcellulose) (HPC)); 92 % of control (dose: 200.0 mg/kg/injection, schedule: Q01DX005 (ip), vehicle: Klucel (hydroxypropylcellulose) (HPC)).

Consider `Cc1noc(NS(=O)(=O)c2ccc(N=Nc3cc(N=Nc4ccc(S(=O)(=O)Nc5onc(C)c5C)cc4)c4c(NC(=O)C(Cl)Cl)cccc4c3OC(=O)C(Cl)Cl)cc2)c1C`, for which the T/C is 94 % of control under setting [1] and 100 % of control under setting [2].

On to `CC(=O)Nc1ccc(C(=O)N/N=C/c2ccccc2O)cc1`, for which the T/C runs as follows: (dose: 6.25 mg/kg/injection, schedule: Q01DX009 (ip), vehicle: Klucel (hydroxypropylcellulose) (HPC)) 90 % of control; (dose: 12.5 mg/kg/injection, schedule: Q01DX009 (ip), vehicle: Klucel (hydroxypropylcellulose) (HPC)) 93 % of control; (dose: 25.0 mg/kg/injection, schedule: Q01DX009 (ip), vehicle: Klucel (hydroxypropylcellulose) (HPC)) 88 % of control.

`O=C1COC(c2ccccc2O)=NN1Cc1ccccc1`: the T/C runs as follows: under setting [1], 94 % of control; under setting [2], 92 % of control; (dose: 200.0 mg/kg/injection, schedule: Q01DX009 (ip), vehicle: saline with Tween-80) 99 % of control.

In the case of `C/C(=C\N1CCN(c2ccc(F)cc2)CC1)C(=O)c1ccc(F)cc1`, the T/C runs as follows: (dose: 50.0 mg/kg/injection, schedule: Q04DX003 (ip), vehicle: saline with Tween-80) 101 % of control; (dose: 100.0 mg/kg/injection, schedule: Q04DX003 (ip), vehicle: saline with Tween-80) 99 % of control; (dose: 200.0 mg/kg/injection, schedule: Q04DX003 (ip), vehicle: saline with Tween-80) 98 % of control; (dose: 400.0 mg/kg/injection, schedule: Q04DX003 (ip), vehicle: saline with Tween-80) 117 % of control.

In the case of `OCC1(c2cccnc2)OCCO1`, the T/C by setting is: (dose: 50.0 mg/kg/injection, schedule: Q01DX005 (ip), vehicle: saline) 99 % of control; (dose: 100.0 mg/kg/injection, schedule: Q01DX005 (ip), vehicle: saline) 101 % of control; (dose: 200.0 mg/kg/injection, schedule: Q01DX005 (ip), vehicle: saline) 101 % of control.
